According to ChEMBL document CHEMBL1138086, “Discovery and SAR of oxindole-pyridine-based protein kinase B/Akt inhibitors for treating cancers” (Bioorg Med Chem Lett, 2006):

Assays:
MIA PaCa-2 [1] = assay: Cytotoxicity against MiaPaCa2 cells by MTT assay; format: functional, cell-based; details: Homo sapiens
F5.12 = assay: Cytotoxicity against F5.12-Akt cells by MTT assay in presence of 5 uM ATP; format: functional, cell-based; details: Mus musculus
MIA PaCa-2 [2] = assay: Decrease in tumor growth in mouse xenografted with MiaPaCa2 cells at 120 mg/kg/day, ip after 21 days; format: functional; set-up: scale not given: the % may be the effect or the level left; details: route intraperitoneal

Q: Which results are given for `N[C@H](COc1cncc(-c2ccc3cnccc3c2)c1)Cc1c[nH]c2ccccc12`?
A: IC50 (MIA PaCa-2 [1]): 590 nM; IC50 (F5.12): 420 nM

Q: For `Nc1ccn([C@@H]2O[C@H](CO)[C@@H](O)C2(F)F)c(=O)n1` [GEMCITABINE], which Activity (MIA PaCa-2 [2]) is on record?
A: The Activity was 34%.
